We go through seven compounds from patent US20100099663A1, “4-TRIFLUOROMETHOXYPHENOXYBENZOL-4'-SULFONIC ACIDS, METHOD FOR THE PRODUCTION AND USE THEREOF IN MEDICAMENTS” (SANOFI-AVENTIS DEUTSCHLAND GMBH, priority 2004, published 2010).

For series [1], the target named is T1, catalytic domain of human stromelysin (MMP-3) (Homo sapiens, UniProt P08254).
T1 construct: Enzymatic Activity of the Catalytic Domain of Human Stromelysin (MMP-3); made in house
Nature of the series: Enzymatic activity of the catalytic domain of human stromelysin (MMP-3), fluorogenic substrate. It counts as biochemical. Particulars: pH 7.5, 15 min preincubation, read-out: Matrix metalloproteinase inhibition MMP-3 (IC50). As to the method: (§1) Preparation and Determination of the Enzymatic Activity of the Catalytic Domain of Human Stromelysin (MMP-3) and of Neutrophil Collagenase (MMP-8).
(§2) The two enzymes stromelysin (MMP-3) and neutrophil collagenase (MMP-8) were prepared by the method of Ye et al. (Biochemistry; 31 (1992) pages 11231-11235). The enzymic activity or the effect of the enzyme inhibitor was measured by incubating 10 μl of enzyme solution with 10 μl of a 3% strength (v/v) buffered dimethyl sulfoxide solution which contained the enzyme inhibitor where appropriate, for 15 minutes. After addition of 10 μl of a 3% strength (v/v) aqueous dimethyl sulfoxide solution which contained 1 mmol/l of the substrate, the enzymic reaction was followed by fluorescence spectroscopy (328 nm (ex)/393 nm(em)).
(§3) The enzymic activity is presented as increase in extinction/minute. The IC50 values listed in Table 1 were determined as the inhibitor concentrations leading in each case to 50% inhibition of the enzyme.
(§4) The buffer solution contained 0.05% Brij (Sigma, Deisenhofen, Germany) and 0.1 mol/l of Tris/HCl, 0.1 mol/l of NaCl, 0.01 mol/l of CaCl2 and 0.1 mol/l of piperazine-N,N′-bis[2-ethanesulfonic acid] (pH=7.5).
(§5) The MMP-3 enzyme solution contained 2.3 μg/ml and the MMP-8 enzyme solution 0.6 μg/ml of one of the enzyme domains prepared by the method of Ye et al. The substrate solution contained 1 mmol/l of the fluorogenic substrate (7-methoxycoumarin-4-yl)acetyl-Pro-Leu-Gly-Leu-3-(2′,4′-dinitrophenyl)-L-2,3-diaminopropionyl-Ala-Arg-NH2 (Bachem, Heidelberg, Germany).

For series [2], the target named is T2, catalytic domain of neutrophil collagenase (MMP-8) (Homo sapiens, UniProt P22894).
T2 construct: Catalytic Domain of Human Stromelysin (MMP-3) and of Neutrophil Collagenase (MMP-8); made in house
Nature of the series: Enzymatic activity of the catalytic domain of neutrophil collagenase (MMP-8), fluorogenic substrate. The class given is biochemical. Particulars: pH 7.5, 15 min preincubation, read-out: Matrix metalloproteinase inhibition MMP-8 (IC50). Here is the method: as §1, §2, §3, §4, §5

The target of series [3] is T3, catalytic domain of human collagenase-3 (MMP-13) (Homo sapiens, UniProt P45452).
T3 construct: Determination of the Enzymatic Activity of the Catalytic Domain of Human Collagenase-3 (MMP-13); purchased INVITEK, Berlin 30 100 803
The series is described as follows: Enzymatic activity of the catalytic domain of human collagenase-3 (MMP-13), fluorogenic substrate. It counts as biochemical. The settings on record: APMA-activated proenzyme, pH 7.5, read-out: Matrix metalloproteinase inhibition MMP-13 (IC50). Here is the method:
Determination of the Enzymatic Activity of the Catalytic Domain of Human Collagenase-3 (MMP-13).
Activation of the proenzyme:
2 parts by volume of proenzyme were incubated with 1 part by volume of APMA solution at 37° C. for 1.5 hours. The APMA solution was prepared from a 10 mmol/l p-aminophenylmercuric acetate solution in 0.1 mmol/l NaOH by dilution with 3 parts by volume of Tris/HCl buffer pH 7.5 (see below). The pH was adjusted to between 7.0 and 7.5 by adding 1 mmol/l HCl. After activation of the enzyme it was diluted with the Tris/HCl buffer to a concentration of 1.67 μg/ml.
The enzymic activity was measured by incubating 10 μl of enzyme solution with 10 μl of a 3% strength (v/v) buffered dimethyl sulfoxide solution (reaction 1) for 15 minutes. The enzyme inhibitor activity was measured by incubating 10 μl of enzyme solution with 10 μl of a 3% strength (v/v) buffered dimethyl sulfoxide solution which contained the enzyme inhibitor (reaction 2).
The enzymic reaction both in the case of reaction 1 and in the case of reaction 2 was followed after addition of 10 μl of a 3% strength (v/v) aqueous dimethyl sulfoxide solution which contains 0.075 mmol/l of the substrate by fluorescence spectroscopy (328 nm (extinction)/393 nm (emission)).
The enzymic activity has been presented as increase in extinction/minute. The effect of the inhibitor was calculated as percentage inhibition by the following formula:
% inhibition=100−[(increase in extinction/minute in reaction 2)/(increase in extinction/minute in reaction 1)×100].
The IC50, which is the concentration of inhibitor which is necessary for 50% inhibition of the enzymic activity, was determined graphically by plotting the percentage inhibitions at various inhibitor concentrations.
The buffer solution contained 0.05% Brij (Sigma, Deisenhofen, Germany) and 0.1 mol/l of Tris/HCl, 0.1 mol/l of NaCl, 0.01 mol/l of CaCl2 (pH=7.5).
The enzyme solution contained 1.67 μg/ml of the enzyme domain. The substrate solution contained 0.075 mmol/l of the fluorogenic substrate (7-methoxycoumarin-4-yl)acetyl-Pro-Leu-Gly-Leu-3-(2′,4′-dinitrophenyl)-L-2,3-diaminopropionyl-Ala-Arg-NH2 (Bachem, Heidelberg, Germany).

A short description of series [4]: Pharmacokinetic measurements in mice after oral administration (n-in-one study). The class given is in vivo. Particulars: male C57/BL mice, oral by gavage about 7.5 mg per kg in PEG400/water 1:1, n-in-one, plasma. As to the method: In each case 14 or 16 male C57/BL mice with an average weight of 20 to 28 g were used for the investigation, and divided into two groups. The animals had free access to feed and water. The substances were dissolved in PEG400/water 1:1 and administered orally by gavage in a concentration of about 7.5 mg per kg (equivalent to about […] per animal). In each case, 2 novel compounds and one comparative compound were previously dissolved separately, mixed and administered simultaneously (n-in-one study). Blood samples were taken after 0.25, 0.5, 1, 2, 4, 6, 8 and 24 h, and the substance concentration was determined quantitatively by HPLC-MS under standardized conditions as described below. The individual results were initially combined within the two groups and then the average was formed therefrom. The pharmacokinetic parameters are calculated using the noncompartmental model (extravascular input).
Quantification took place by HPLC-MS-MS. An HPLC system from Agilent (1100) was used, coupled to a PE-Sciex API 4000 (triple quadruple mass spectrometer). The column used was a ProdigyR 5μ ODS, flow rate […], injected volumes 16 μl. Eluent: acetonitrile-0.002% ammonium formate. Detection took place in MS/MS mode (multiple reaction monitoring) focussed on Q1 and selective masses (fragment) filtration on Q3.
Workup of the plasma samples beforehand took place as follows: admixture of 25 μl of 60/40 acetonitrile/0.1% formate plus 25 μl of internal standard 5 μg/ml in the same solvent, plus 25 μl of blank plasma or sample plasma, plus 200 μl of acetonitrile. Mixing for 5 min was followed by centrifugation (3 min, 5000 g) and then pipetting of 200 μl into the measurement vessels.
Cmax is the maximum plasma concentration reached at one of the sampling times. AUC “area under the curve”, time course of the decrease in concentration and Cmax determine the magnitude of the value.

What is called IC50 is the midpoint of a concentration-inhibition curve. One may read the AUC as the area under the concentration-time curve, a measure of exposure. By Cmax is commonly meant the maximum level reached in the sampled fluid or tissue. In general, t½ refers to how long it takes for the measured level to halve. A high value points to slow loss.

T1 sequence (P08254 100-272 limits assumed): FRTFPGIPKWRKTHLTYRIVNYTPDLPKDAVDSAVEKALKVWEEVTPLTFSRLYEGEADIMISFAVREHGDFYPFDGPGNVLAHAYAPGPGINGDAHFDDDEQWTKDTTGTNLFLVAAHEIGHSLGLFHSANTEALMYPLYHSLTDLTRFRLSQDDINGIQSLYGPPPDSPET
T2 sequence (P22894 100-262 limits assumed): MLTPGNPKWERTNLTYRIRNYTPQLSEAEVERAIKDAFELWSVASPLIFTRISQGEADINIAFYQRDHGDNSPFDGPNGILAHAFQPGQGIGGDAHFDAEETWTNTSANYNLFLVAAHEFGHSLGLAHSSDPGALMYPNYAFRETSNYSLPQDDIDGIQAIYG

For “5-[4-(4-Trifluoromethoxyphenoxy)benzenesulfonyl]octahydrofuro[3,2-c]pyridine-4-carboxylic acid [Example 5]”, the 50% inhibitory concentration (IC50) is 380 nM in series [1], 210 nM in series [2] and 240 nM in series [3].

In the case of `O=C(NO)C1C2CCCCC2CCN1S(=O)(=O)c1ccc(Oc2ccc(OC(F)(F)F)cc2)cc1` (stereo not drawn) [Example 4, 2-[4-(4-Trifluoromethoxyphenoxy)benzenesulfonyl]decahydroisoquinoline-1-(N-hydroxy)carboxamide], the IC50 in series [1] was found to be 69 nM; in series [2], 14 nM; in series [3] it was 4 nM.

As to `O=C(NO)C1c2ccccc2CCN1S(=O)(=O)c1ccc(Oc2ccc(OC(F)(F)F)cc2)cc1` (stereo not drawn) [Example 3, 2-[4-[4-Trifluoromethoxyphenoxy)benzenesulfonyl]-1,2,3,4-tetrahydroisoquinoline-1-(N-hydroxy)carboxamide], the IC50 in series [1] came to 28 nM; in series [2], 3.6 nM; in series [3], 2 nM. Further, in series [4], the area under the curve (AUC) turned out to be 2230 ng·h/mL. Also, the highest concentration (Cmax) in series [4] stood at 1350 ng/mL. In series [4], this compound came in with a t½ of 6.6 h.

Turning to `COc1ccc(Oc2ccc(S(=O)(=O)N3CCc4ccccc4C3C(=O)NO)cc2)cc1` (stereo not drawn) [Example 9, 2-[4-(4-Methoxyphenoxy)benzenesulfonyl]-1,2,3,4-tetrahydroisoquinoline-1-N-hydroxycarboxamide, reference compound], the concentration for half-maximal inhibition (IC50) in series [1] was determined as 23 nM; in series [2], 2.3 nM; in series [3] it was 2.2 nM. The compound also registered an AUC in series [4] of 250 ng·h/mL. In addition, in series [4], the Cmax was determined as 450 ng/mL. Further, the t½ in series [4] is listed as 1.5 h.

With `O=C(NO)C1C2CCOC2CCN1S(=O)(=O)c1ccc(Oc2ccc(OC(F)(F)F)cc2)cc1` (stereo not drawn) [Example 6, 5-[4-(4-Trifluoromethoxyphenoxy)benzenesulfonyl]octahydrofuro[3,2-c]pyridine-4-(N-hydroxy)carboxamide], the 50% inhibitory concentration (IC50) in series [1] was determined as 24 nM; in series [2] it was 4 nM; in series [3], 2 nM.

`O=C(NO)C1C2CCCCC2CCCN1S(=O)(=O)c1ccc(Oc2ccc(OC(F)(F)F)cc2)cc1` (stereo not drawn) [Example 7, 2-[4-(4-Trifluoromethoxyphenoxy)benzenesulfonyl]decahydrobenzo[c]azepine-1-(N-hydroxy)carboxamide]: the results for the IC50 in series [1], in series [2] and in series [3] were 24 nM, 4 nM and 2 nM, respectively.

For `O=C(O)C1c2ccccc2CCN1S(=O)(=O)c1ccc(Oc2ccc(OC(F)(F)F)cc2)cc1` (stereo not drawn) [Example 10, 2-[4-(4-Trifluorophenoxy)benzenesulfonyl]-1,2,3,4-tetrahydroisoquinoline-1-carboxylic acid], in series [4], the exposure (AUC) came out at 160 ng·h/mL, the peak concentration (Cmax) turned out to be 240 ng/mL and the t½ is reported as 1.8 h.
